These results are taken from US12570666B2, “Furoindazole derivatives” (Bayer Aktiengesellschaft, priority 2019, dated 2026).

T1 sequence (Q9NQS5 whole entry): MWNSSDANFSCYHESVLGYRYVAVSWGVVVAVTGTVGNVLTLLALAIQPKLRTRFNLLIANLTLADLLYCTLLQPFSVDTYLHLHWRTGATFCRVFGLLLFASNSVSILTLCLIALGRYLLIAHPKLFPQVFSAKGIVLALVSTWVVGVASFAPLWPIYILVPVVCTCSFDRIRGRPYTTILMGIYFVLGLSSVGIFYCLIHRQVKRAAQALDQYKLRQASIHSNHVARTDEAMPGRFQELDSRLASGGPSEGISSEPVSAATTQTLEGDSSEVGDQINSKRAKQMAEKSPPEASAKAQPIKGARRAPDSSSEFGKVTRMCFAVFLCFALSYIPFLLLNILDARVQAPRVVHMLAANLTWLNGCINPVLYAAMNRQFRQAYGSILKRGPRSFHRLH

This test has as its target T1, human GPR84 receptor (Homo sapiens, UniProt Q9NQS5).
T1 construct: frozen aliquots prepared by acCELLerate; host or cells: CHO-K1
In words: cAMP HTRF assay for identification of cellular GPR84 antagonists. Type of test: cell-based. To be noted: CHO-K1 cells stably expressing human GPR84; Forskolin + agonist 6-OAU (EC80); average or median values. The text has this:
cAMP HTRF® Assay for Identification of Cellular GPR84 Antagonists
By using a Homogenous Time-Resolved Fluorescence (HTRF®) based assay (#62AM5PEJ, Cisbio, Condolet, France) the inhibition of the Gi-coupled GPR84 receptor can be detected. CHO-K1 cells stably expressing human GPR84 receptor (purchased from DiscoveRx, now Eurofins) were used and treated with Forskolin (F6886, Sigma, Germany) to stimulate membrane adenylyl cyclases and thereby unspecific cAMP formation. Activation of the Gi-coupled GPR84 by a natural or small molecule agonist (e.g. 6-n-octyl aminouracile, inhouse) results in inhibition of cellular cAMP formation which can be released again by antagonists to this receptor. Detection and quantification of cellular cAMP levels in this HTRF assay is achieved by interaction between a fluorescent cAMP tracer (cAMP-d2) and an Eu-cryptate labelled anti-cAMP antibody. Following excitation at 337 nm this pairing allows for the generation of a fluorescence resonance energy transfer (FRET) between the partners and results in FRET induced emissions at 665 nm and 620 nm, the latter representing background signal by Eu-cryptate labelled anti-cAMP antibody. Maximal signal is obtained in the absence of any cellular cAMP (no competition for the binding of the tracer to the antibody). Given the combination of the Gi coupling properties of GPR84 and the competitive nature of the detection system agonist treatment should result in an increase in the HTRF signal due to lowered cAMP levels. Any signal decrease in the presence of Forskolin, agonist and compound is indicative of antagonist mediated abrogation of GPR84 signalling.
For the assay, frozen aliquots of CHO-K1 cells expressing hGPR84 (prepared by acCELLerate, Hamburg, Germany) were thawed and a cell suspension (1.67E+06 cells/mL) in assay media (Ham's F12 Nutrient Mix, Thermo Fisher Scientific, Waltham, USA; 5% fetal calf serum, Biomol, Hamburg, Germany) containing cAMP-d2 (dilution 1:20, supplied with the kit #62AM5PEJ, Cisbio, Condolet, France) was prepared. After recovery of cells for 20 minutes at 37° C., 3 μL/well cell suspension including cAMP-d2 were added to a pre-dispensed assay plate (Greiner Bio-One, Kremsmuenster, Austria) containing 50 nl/well test compound in 100% DMSO or 100% DMSO as control. This was followed by a 30 minutes incubation step at room temperature. […] The reaction was stopped by addition of 3 μL/well lysis buffer containing cAMP Eu-Cryptate antibody (dilution 1:20) (both supplied with the kit #62AM5PEJ, Cisbio, Condolet, France). To enable complete lysis, plates were incubated for 60 minutes at room temperature before measurement in an HTRF reader, e.g. a PHERAstar (BMG Labtech, Ortenberg, Germany).
From the fluorescence emissions at 665 nm (FRET) and at 620 nm (background signal of Eu-cryptate) the ratio (emission at 665 nm divided by emission at 620 nm×10000) was calculated and the data were normalized (reaction without test compound, only 100% DMSO=0% inhibition; all other assay components except agonist=100% inhibition). For dose response testing on the same microtiter plate, compounds were tested at 11 different concentrations in the range of 20 μM to 0.07 nM (20 μM, 5.7 μM, 1.6 μM, 0.47 μM, 0.13 μM, 38 nM, 11 nM, 3.1 nM, 0.89 nM, 0.25 and 0.07 nM; dilution series prepared before the assay at the level of the 100-fold conc. stock solutions by serial 1:3.5 dilutions in 100% DMSO) in duplicate values for each concentration. IC50 values were calculated by 4-parameter fitting using a commercial software package (Genedata Screener, Basel, Switzerland).
Examples were tested in selected biological assays one or more times. […]
(In general: In TR-FRET formats the signal depends on donor and acceptor labels being close together.)
For `Cc1c(C(=O)NC[C@@H]2CCCO2)oc2c1-c1nn(CC3COc4ncccc4O3)cc1CC2` (mixture of isomers) [Example 52, 2-[(2R/S)-2,3-dihydro[1,4]dioxino[2,3-b]pyridin-2-ylmethyl]-8-methyl-N-[(2S)-tetrahydrofuran-2-ylmethyl]-4,5-dihydro-2H-furo[2,3-g]indazole-7-carboxamide], the IC50 is 42 nM.
On to `Cc1c(C(=O)NCC2CC(C)CO2)oc2c1-c1nn(Cc3ccccn3)cc1CC2` (mixture of isomers) [Example 175], for which the IC50 stood at 61 nM.
As to `Cc1c(C(=O)NCC2CCC(C)O2)oc2c1-c1nn(Cc3ccccn3)cc1CC2` (mixture of isomers) [Example 176], the IC50 was 118 nM.
Regarding `Cc1c(C(=O)NC[C@@H]2CCCO2)oc2c1-c1nn(CC3CCCCO3)cc1CC2` (mixture of isomers) [Example 190], the IC50 turned out to be 238 nM.
Under `Cc1c(C(=O)NCC2CCC(C)(C)O2)oc2c1-c1nn(C[C@H]3COCCO3)cc1C1(CC1)C2` (mixture of isomers) [Example 195] stands 29 nM; under `Cc1c(C(=O)NCC2COCC(C)(C)O2)oc2c1-c1nn(C[C@H]3COCCO3)cc1C1(CC1)C2` (mixture of isomers) [Example 196], 182 nM; under `Cc1c(C(=O)NCC2CC(F)(F)CO2)oc2c1-c1nn(C[C@H]3COCCO3)cc1C1(CC1)C2` (mixture of isomers) [Example 197], 98 nM.
The figure for `Cc1c(C(=O)NCC2CCC(C)O2)oc2c1-c1nn(C[C@H]3COCCO3)cc1C1(CC1)C2` (mixture of isomers) [Example 198] is 94 nM; for `Cc1c(C(=O)NCC2CC(C)CO2)oc2c1-c1nn(C[C@H]3COCCO3)cc1C1(CC1)C2` (mixture of isomers) [Example 199] it is 79 nM; for `Cc1c(C(=O)NCC2CC3(CC3)CO2)oc2c1-c1nn(C[C@H]3COCCO3)cc1C1(CC1)C2` (mixture of isomers) [Example 200] it is 111 nM.
With `Cc1c(C(=O)NCC2CCC3(COC3)O2)oc2c1-c1nn(C[C@H]3COCCO3)cc1C1(CC1)C2` (mixture of isomers) [Example 201], the IC50 was determined as 80 nM.
As to `O=C(NCC1CC(F)(F)CO1)c1oc2c(c1C(F)(F)F)-c1nn(C[C@H]3COCCO3)cc1CC2` (mixture of isomers) [Example 222, N-{[(2±)-4,4-difluorooxolan-2-yl]methyl}-2-{[(2S)-1,4-dioxan-2-yl]methyl}-8-(trifluoromethyl)-4,5-dihydro-2H-furo[2,3-g]indazole-7-carboxamide], the IC50 was 20 nM.
The figure for `CC1(C)CCC(CNC(=O)c2oc3c(c2C(F)(F)F)-c2nn(C[C@H]4COCCO4)cc2CC3)O1` (mixture of isomers) [Example 223, N-{[(2±)-5,5-dimethyloxolan-2-yl]methyl}-2-{[(2S)-1,4-dioxan-2-yl]methyl}-8-(trifluoromethyl)-4,5-dihydro-2H-furo[2,3-g]indazole-7-carboxamide] is 23 nM; for `CC1CCC(CNC(=O)c2oc3c(c2C(F)(F)F)-c2nn(C[C@H]4COCCO4)cc2CC3)O1` (mixture of isomers) [Example 224, 2-{[(2S)-1,4-dioxan-2-yl]methyl}-N-{[(2±,5±)-5-methyloxolan-2-yl]methyl}-8-(trifluoromethyl)-4,5-dihydro-2H-furo[2,3-g]indazole-7-carboxamide] it is 18 nM; for `Cc1c(C(=O)NC[C@@H]2COCCO2)oc2c1-c1nn(Cc3ccccn3)cc1C(C)C2` (mixture of isomers) [Example 246, (4±)-N-{[(2R)-1,4-dioxan-2-yl]methyl}-4,8-dimethyl-2-[(pyridin-2-yl)methyl]-4,5-dihydro-2H-furo[2,3-g]indazole-7-carboxamide] it is 75 nM.
`Cc1c(C(=O)NC[C@@H]2CCCO2)oc2c1-c1nn(Cc3ccccn3)cc1C(C)C2` (mixture of isomers) [Example 247, (4+)-4,8-dimethyl-N-{[(2S)-oxolan-2-yl]methyl}-2-[(pyridin-2-yl)methyl]-4,5-dihydro-2H-furo[2,3-g]indazole-7-carboxamide]: the IC50 stood at 66 nM.
`Cc1c(C(=O)NC[C@@H]2COCCO2)oc2c1-c1nn(C[C@H]3COCCO3)cc1C(C)C2` (mixture of isomers) [Example 248, (4±)-N-{[(2R)-1,4-dioxan-2-yl]methyl}-2-{[(2S)-1,4-dioxan-2-yl]methyl}-4,8-dimethyl-4,5-dihydro-2H-furo[2,3-g]indazole-7-carboxamide]: the IC50 was 145 nM.
`Cc1c(C(=O)NC[C@@H]2CCCO2)oc2c1-c1nn(C[C@H]3COCCO3)cc1C(C)C2` (mixture of isomers) [Example 249, (4±)-2-{[(2S)-1,4-dioxan-2-yl]methyl}-4,8-dimethyl-N-{[(2S)-oxolan-2-yllmethyl}-4,5-dihydro-2H-furo[2,3-g]indazole-7-carboxamide]: the IC50 is 122 nM.
`CC1Cc2oc(C(=O)NC[C@@H]3COCCO3)c(C(F)(F)F)c2-c2nn(Cc3ccccn3)cc21` (mixture of isomers) [Example 250, (4±)-N-{[(2R)-1,4-dioxan-2-yl]methyl}-4-methyl-2-[(pyridin-2-yl)methyl]-8-(trifluoromethyl)-4,5-dihydro-2H-furo[2,3-g]indazole-7-carboxamide]: the IC50 was 17 nM.
As for `Cc1ccc(Cn2cc3c(n2)-c2c(oc(C(=O)NC[C@@H]4CCCO4)c2C(F)(F)F)CC3C)nc1` (mixture of isomers) [Example 251, (4±)-4-methyl-2-[(5-methyl-2-pyridyl)methyl]-N-[[(2S)-tetrahydrofuran-2-yl]methyl]-8-(trifluoromethyl)-4,5-dihydrofuro[2,3-g]indazole-7-carboxamide], the half-maximal inhibitory concentration (IC50) came to 9 nM.
As for `Cc1ccc(Cn2cc3c(n2)-c2c(oc(C(=O)NC[C@@H]4COCCO4)c2C(F)(F)F)CC3C)cn1` (mixture of isomers) [Example 252, (4±)-N-{I(2R)-1,4-dioxan-2-yl]methyl)-4-methyl-2-[(6-methylpyridin-3-yl)methyl]-8-(trifluoromethyl)-4,5-dihydro-2H-furo[2,3-g]indazole-7-carboxamide], the IC50 was determined as 9 nM.
The figure for `Cc1ccc(Cn2cc3c(n2)-c2c(oc(C(=O)NC[C@@H]4CCCO4)c2C(F)(F)F)CC3C)cn1` (mixture of isomers) [Example 253, (4±)-4-methyl-2-[(6-methylpyridin-3-yl)methyl]-N-{[(2S)-oxolan-2-yl]methyl}-8-(trifluoromethyl)-4,5-dihydro-2H-furo[2,3-g]indazole-7-carboxamide] is 5 nM; for `CC1Cc2oc(C(=O)NC[C@@H]3COCCO3)c(C(F)(F)F)c2-c2nn(C[C@H]3COCCO3)cc21` (mixture of isomers) [Example 254, (4±)-N-{[(2R)-1,4-dioxan-2-yl]methyl}-2-{[(2S)-1,4-dioxan-2-yl]methyl}-4-methyl-8-(trifluoromethyl)-4,5-dihydro-2H-furo[2,3-g]indazole-7-carboxamide] it is 6 nM.
For `CC1Cc2oc(C(=O)NC[C@@H]3CCCO3)c(C(F)(F)F)c2-c2nn(C[C@H]3COCCO3)cc21` (mixture of isomers) [Example 255, (4±)-2-{[(2S)-1,4-dioxan-2-yl]methyl}-4-methyl-N-{[(2S)-oxolan-2-yl]methyl}-8-(trifluoromethyl)-4,5-dihydro-2H-furo[2,3-g]indazole-7-carboxamide], the IC50 stood at 5 nM.

As a reminder, the IC50 is the concentration needed to halve the response being measured.
